Reference: patent publication US9249127B2 (Orion Corporation, priority 2012, dated 2016)
Structures can show the parent of a compound that is named as a salt. Where two headings read alike, the source gives them in different places.

Biological target: T1, alpha2A receptor (Homo sapiens, UniProt P08913)
T1 sequence (P08913 1-465): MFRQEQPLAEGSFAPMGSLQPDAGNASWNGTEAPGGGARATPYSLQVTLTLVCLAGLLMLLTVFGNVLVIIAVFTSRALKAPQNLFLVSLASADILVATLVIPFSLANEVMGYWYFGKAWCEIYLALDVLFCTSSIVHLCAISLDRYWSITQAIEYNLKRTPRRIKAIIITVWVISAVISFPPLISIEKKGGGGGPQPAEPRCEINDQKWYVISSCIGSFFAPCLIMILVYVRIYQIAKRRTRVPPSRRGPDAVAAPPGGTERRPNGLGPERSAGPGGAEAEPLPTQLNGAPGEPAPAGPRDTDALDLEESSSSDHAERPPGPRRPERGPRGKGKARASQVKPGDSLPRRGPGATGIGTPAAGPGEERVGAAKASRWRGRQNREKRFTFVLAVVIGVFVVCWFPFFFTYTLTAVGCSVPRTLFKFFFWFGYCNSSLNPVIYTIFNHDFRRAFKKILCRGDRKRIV
Assay: Alpha2A agonistic activity in vitro
Format: cell-based

[1] = Alpha2A Agonism pEC50, in vitro
[2] = in vitro, read-out: Alpha2A Agonism pEC50 (converted)

Row | SMILES | EC50 [1] | Alpha2A Intrinsic Activity (in vitro) | EC50 [2] | Alpha2A Intrinsic Activity (in vitro, hydrochloride)
1 | Clc1cccc2c1CCOC2C1=NCCN1 (single isomer, unassigned) [Example 92, 2-(5-chloroisochroman-1-yl)-4,5-dihydro-1H-imidazole] | 31.6 nM | 0.78 | – | –
2 | C[C@@H]1Cc2c(Cl)cccc2C(C2=NCCN2)O1 (stereo partly drawn) [Example 33, 2-((3R)-5-chloro-3-methylisochroman-1-yl)-4,5-dihydro-1H-imidazole] | 1.58 nM | 0.93 | – | –
3 | Cc1cccc2c1CCOC2(C)C1=NCCN1 (single isomer, unassigned) [Example 22, 2-(1,5-Dimethylisochroman-1-yl)-4,5-dihydro-1H-imidazole] | – | 0.33 | 1000 nM | –
4 | CCCC1Cc2c(Br)cccc2C(C2=NCCN2)O1 (centres unmarked) [Example 40, 2-(5-Bromo-3-propylisochroman-1-yl)-4,5-dihydro-1H-imidazole] | – | 0.31 | 316 nM | –
5 | C[C@@H]1Cc2c(OC(F)F)cccc2C(C2=NCCN2)O1 (stereo partly drawn) [Example 93, 2-((3R)-5-(difluoromethoxy)-3-methylisochroman-1-yl)-4,5-dihydro-1H-imidazole] | 31.6 nM | 0.64 | – | –
6 | Cc1cccc2c1CC(C)SC2C1=NCCN1 (centres unmarked) [Example 62, 2-(3,5-Dimethylisothiochroman-1-yl)-4,5-dihydro-1H-imidazole] | – | 0.77 | – | –
7 | C[C@H]1Cc2c(Br)cccc2C(C2=NCCN2)O1 (stereo partly drawn) [Example 35, 2-((3S)-5-bromo-3-methylisochroman-1-yl)-4,5-dihydro-1H-imidazole] | 15.8 nM | 0.80 | – | –
8 | CC1COC(C2=NCCN2)c2cccc(Br)c21 (centres unmarked) [Example 20, 2-(5-Bromo-4-methylisochroman-1-yl)-4,5-dihydro-1H-imidazole] | 63.1 nM | 0.87 | – | –
9 | CCC1Cc2c(OC)cccc2C(C2=NCCN2)O1 (centres unmarked) [Example 46, 2-(3-Ethyl-5-methoxyisochroman-1-yl)-4,5-dihydro-1H-imidazole] | 79.4 nM | 0.45 | – | –
10 | c1cc2c3c(cccc3c1)C(C1=NCCN1)OC2 (centres unmarked) [Example 102, 2-(1,3-Dihydrobenzo[de]isochromen-1-yl)-4,5-dihydro-1H-imidazole] | 2.51 nM | 0.82 | – | –
11 | NC(=O)c1cccc2c1CCOC2C1=NCCN1 (centres unmarked) [Example 56, 1-(4,5-Dihydro-1H-imidazol-2-yl)isochroman-5-carboxamide] | – | 0.11 | 3160 nM | –
12 | CCc1cccc2c1C[C@@H](C)OC2C1=NCCN1 (stereo partly drawn) [Example 45, 2-((3R)-5-ethyl-3-methylisochroman-1-yl)-4,5-dihydro-1H-imidazole] | 6.31 nM | 0.73 | – | –
13 | CC1Cc2c(Br)cccc2C(C2=NCCN2)O1 (centres unmarked) [Example 29, 2-(5-Bromo-3-methylisochroman-1-yl)-4,5-dihydro-1H-imidazole] | 2 nM | 0.99 | – | –
14 | Cc1cccc2c1CC(CC(F)F)OC2C1=NCCN1 (single isomer, unassigned) [Example 89, 2-((3-(2,2-difluoroethyl)-5-methylisochroman-1-yl)-4,5-dihydro-1H-imidazole hydrochloride] | 39.8 nM | – | – | 0.33
15 | CCc1cccc2c1CCOC2C1=NCCN1 (single isomer, unassigned) [Example 80] | – | 0.58 | 251 nM | –
16 | CCC1OC(C2=NCCN2)c2cccc3cccc1c23 (centres unmarked) [Example 105, 2-(3-Ethyl-1,3-dihydrobenzo[de]isochromen-1-yl)-4,5-dihydro-1H-imidazole] | 39.8 nM | 0.66 | – | –
17 | Ic1cccc2c1CCOC2C1=NCCN1 (centres unmarked) [Example 18, 2-(5-Iodoisochroman-1-yl)-4,5-dihydro-1H-imidazole] | 2 nM | 0.81 | – | –
18 | CCC1Cc2c(Br)cccc2C(C2=NCCN2)O1 (single isomer, unassigned) [Example 94, 2-(5-bromo-3-ethylisochroman-1-yl)-4,5-dihydro-1H-imidazole] | 25.1 nM | 0.55 | – | –
19 | COc1cccc2c1C[C@@H](C)OC2(C)C1=NCCN1 (stereo partly drawn) [Example 71, 2-((3R)-5-methoxy-1,3-dimethylisochroman-1-yl)-4,5-dihydro-1H-imidazole] | – | 0.33 | 2000 nM | –

Row | SMILES | EC50 [1] | Alpha2A Intrinsic Activity (in vitro) | EC50 [2] | Alpha2A Intrinsic Activity (in vitro, hydrochloride)
20 | Oc1cccc2c1CCOC2C1=NCCN1 (centres unmarked) [Example 9, 1-(4,5-Dihydro-1H-imidazol-2-yl)isochroman-5-ol] | – | 0.73 | 200 nM | –
21 | CC[C@@H]1Cc2c(Cl)cccc2C(C2=NCCN2)O1 (stereo partly drawn) [Example 12, 2-((3R)-5-chloro-3-ethylisochroman-1-yl)-4,5-dihydro-1H-imidazole] | – | 0.94 | 1580 nM | –
22 | CC(O)c1cccc2c1CCOC2C1=NCCN1 (centres unmarked) [Example 58, 1-(1-(4,5-Dihydro-1H-imidazol-2-yl)isochroman-5-yl)ethanol] | – | 0.47 | – | –
23 | Cc1cccc2c1CC(C)OC2(C)C1=NCCN1 (centres unmarked) [Example 30, 2-(1,3,5-Trimethylisochroman-1-yl)-4,5-dihydro-1H-imidazole] | – | 0.60 | 794 nM | –
24 | OCc1cccc2c1CCOC2C1=NCCN1 (centres unmarked) [Example 10, (1-(4,5-Dihydro-1H-imidazol-2-yl)isochroman-5-yl)methanol] | 20 nM | 0.90 | – | –
25 | C[C@@H]1Cc2c(F)cccc2C(C2=NCCN2)O1 (stereo partly drawn) [Example 50, 2-((3R)-5-fluoro-3-methylisochroman-1-yl)-4,5-dihydro-1H-imidazole] | 25.1 nM | 0.90 | – | –
26 | CCC1Cc2c(C)cccc2C(C2=NCCN2)O1 (centres unmarked) [Example 27, 2-(3-Ethyl-5-methylisochroman-1-yl)-4,5-dihydro-1H-imidazole] | 25.1 nM | 0.69 | – | –
27 | C[C@@H]1Cc2c(OC(F)(F)F)cccc2C(C2=NCCN2)O1 (stereo partly drawn) [Example 49, 2-((3R)-3-methyl-5-(trifluoromethoxy)isochroman-1-yl)-4,5-dihydro-1H-imidazole] | – | 0.35 | 126 nM | –
28 | COc1cc(C)c2c(c1)C(C1=NCCN1)OCC2 (centres unmarked) [Example 61, 2-(7-Methoxy-5-methylisochroman-1-yl)-4,5-dihydro-1H-imidazole] | – | 0.81 | – | –
29 | C#Cc1cccc2c1CCOC2C1=NCCN1 (centres unmarked) [Example 15, 2-(5-Ethynylisochroman-1-yl)-4,5-dihydro-1H-imidazole] | 15.8 nM | 0.88 | – | –
30 | Brc1cccc2c1CCOC2C1=NCCN1 (centres unmarked) [Example 2, 2-(5-Bromoisochroman-1-yl)-4,5-dihydro-1H-imidazole] | 15.8 nM | 0.85 | – | –
31 | Cc1cccc2c1CC(CC(F)(F)F)OC2C1=NCCN1 (single isomer, unassigned) [Example 86, 2-((3)-5-methyl-3-(2,2,2-trifluoroethyl)isochroman-1-yl)-4,5-dihydro-1H-imidazole] | – | 0.28 | 100 nM | –
32 | CC[C@@H]1Cc2c(cccc2C(F)(F)F)C(C2=NCCN2)O1 (stereo partly drawn) [Example 16, 2-((3R)-3-ethyl-5-(trifluoromethyl)isochroman-1-yl)-4,5-dihydro-1H-imidazole] | – | 0.51 | 50.1 nM | –
33 | Cc1cccc2c1CCOC2(C)C1=NCCN1 (single isomer, unassigned) [Example 21, 2-(1,5-Dimethylisochroman-1-yl)-4,5-dihydro-1H-imidazole] | 50.1 nM | 0.73 | – | –
34 | FC(F)(F)Oc1cccc2c1CCOC2C1=NCCN1 (centres unmarked) [Example 79, 2-(5-(Trifluoromethoxy)isochroman-1-yl)-4,5-dihydro-1H-imidazole] | – | 0.30 | 398 nM | –
35 | CC1(C2=NCCN2)OCCc2c(C3CC3)cccc21 (centres unmarked) [Example 24] | – | 0.20 | 794 nM | –
36 | c1cc2c3c(c1)C(C1=NCCN1)OCC3CCCC2 (centres unmarked) [Example 57, 2-(3,7,8,9,10,10a-Hexahydro-1H-cyclohepta[de]isochromen-3-yl)-4,5-dihydro-1H-imidazole] | – | 0.11 | 2000 nM | –
37 | CC1(C2=NCCN2)OCc2cccc3cccc1c23 (centres unmarked) [Example 98, 2-(1-Methyl-1,3-dihydrobenzo[de]isochromen-1-yl)-4,5-dihydro-1H-imidazole] | 12.6 nM | 0.58 | – | –
